IC50 data for 39 molecules are collected here from patent publication US8420823B2, “Long-chain fatty acyl elongase inhibitor comprising arylsulfonyl derivative as active ingredient” (MSD K.K., priority 2008, dated 2013).

Structures are written as SMILES. Structures can show the parent of a compound that is named as a salt.

The assay deals with T1, human LCE (Homo sapiens, UniProt Q9H5J4).
T1 sequence (Q9H5J4 1-265): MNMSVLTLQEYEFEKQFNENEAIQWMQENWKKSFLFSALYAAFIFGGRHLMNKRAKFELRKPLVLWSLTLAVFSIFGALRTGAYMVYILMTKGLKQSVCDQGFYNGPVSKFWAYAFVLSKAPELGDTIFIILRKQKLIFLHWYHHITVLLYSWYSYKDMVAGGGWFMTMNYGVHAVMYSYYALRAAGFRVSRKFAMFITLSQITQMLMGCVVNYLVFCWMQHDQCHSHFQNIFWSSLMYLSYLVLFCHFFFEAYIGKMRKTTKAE
In words: LCE enzyme activity-inhibitory test. The class given is biochemical. To be noted: [14C]-malonyl CoA / palmitoyl CoA substrate, 37° C., 90 minutes. In a few lines: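 Human LCE (100 μg/mL in enzyme solution) was incubated 90 min at 37 °C in 100 mM potassium phosphate pH 6.5 with palmitoyl CoA, malonyl CoA, [14C]-malonyl CoA, rotenone and fatty acid-free BSA. Acid-stopped, hydrolyzed products were captured on GF/C filters and counted by scintillation. Inhibition was calculated against DMSO control.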
The molecule `CC(C)Oc1cc(NC(=O)c2cccc(S(=O)(=O)N3CCC(F)(F)CC3)c2)[nH]n1` [Example 68, 5-({3-[(4,4-difluoropiperidin-1-yl)sulfonyl]benzoyl}amino)-3-isopropoxy-1H-pyrazole hydrochloride] registered an IC50 of 13 nM.
With `Cc1ccc(NC(=O)c2cccc(S(=O)(=O)N3CCCCC3)c2)cc1` [Example 84, N-(4-methylphenyl)-3-(piperidin-1-ylsulfonyl)benzamide], the IC50 was determined as 2600 nM.
Molecule `O=C(Nc1cc(C2CC2)n[nH]1)c1cccc(S(=O)(=O)N2CCCCC2)c1` [Example 105, N-(3-cyclopropyl-1H-pyrazol-5-yl)-3-(piperidin-1-ylsulfonyl)benzamide] registered an IC50 of 84 nM.
The result for `CCCCOc1cc(NC(=O)c2cccc(S(=O)(=O)c3ccccn3)c2)[nH]n1` [Example 119, N-(3-butoxy-1H-pyrazol-5-yl)-3-(pyridin-2-ylsulfonyl)benzamide] reads 6 nM; that for `O=C(Nc1ccc(Oc2ccccc2)cc1)c1cccc(S(=O)(=O)N2CCCCC2)c1` [Example 87, N-(4-phenoxyphenyl)-3-(piperidin-1-ylsulfonyl)benzamide], 210 nM; that for `CC(C)Oc1ccc(NC(=O)c2cccc(S(=O)(=O)N3CCc4o[nH]c(=O)c4C3)c2)cc1` [Example 22, N-(4-isopropoxyphenyl)-3-[(3-oxo-2,3,6,7-tetrahydroisoxazolo[4,5-c]pyridin-5(4H)-yl)sulfonyl]benzamide], 5100 nM.
In turn, `N#Cc1nc[nH]c1NC(=O)c1cccc(S(=O)(=O)N2CCCCC2)c1` [Example 114, N-(4-cyano-1H-imidazol-5-yl)-3-(piperidin-1-ylsulfonyl)benzamide] yielded an IC50 of 2800 nM.
Under `CC(C)Oc1ccc(NC(=O)c2cc(S(=O)(=O)N3CCCCC3)ccc2OCCC#N)cc1` [Example 153, 2-(Cyanoethoxy)-N-(4-isopropoxyphenyl)-5-(piperidin-1-ylsulfonyl)benzamide] stands 420 nM; under `O=C(Nc1ccccc1)c1cccc(S(=O)(=O)N2CCCCC2)c1` [Example 88, N-phenyl-3-(piperidin-1-ylsulfonyl)benzamide], 2200 nM; under `CCc1cnc(NC(=O)c2cccc(S(=O)(=O)N3CCCCC3)c2)c(OC)c1` [Example 108, N-(5-ethyl-3-methoxypyridin-2-yl)-3-(piperidin-1-ylsulfonyl)benzamide], 100 nM.
Under `COc1cccnc1NC(=O)c1cccc(S(=O)(=O)c2ccccc2)c1` [Example 135, N-(3-methoxypyridin-2-yl)-3-(phenylsulfonyl)benzamide] stands 510 nM.
Take `COc1cccnc1NC(=O)c1cccc(S(=O)(=O)c2ccccn2)c1` [Example 120, N-(3-methoxypyridin-2-yl)-3-(pyridin-2-ylsulfonyl)benzamide]: the IC50 is 390 nM.
The result for `COc1ccc(NC(=O)c2cccc(S(=O)(=O)c3ccccc3)c2)cc1` [Example 133, N-(4-methoxyphenyl)-3-(phenylsulfonyl)benzamide] reads 3700 nM; that for `CC(C)Oc1ccc(NC(=O)c2cccc(S(=O)(=O)N3CCC[C@@H](C(N)=O)C3)c2)nc1` [Example 59′, (3R)-1-[(3-{[(5-isopropoxypyridin-2-yl)amino]carbonyl}phenyl)sulfonyl]piperidine-3-carboxamide], 3000 nM; that for `CC(C)Oc1ccc(NC(=O)c2cccc(S(=O)(=O)N3CCC[C@@H]3C)c2)cc1` [Example 23, N-(4-isopropoxyphenyl)-3-{[(2S)-2-methylpyrrolidin-1-yl]sulfonyl}benzamide], 130 nM.
In turn, `COc1cccnc1NC(=O)c1cccc(S(=O)(=O)N2CCCC(c3nc4ccccc4[nH]3)C2)c1` (stereo not drawn) [Example 50, 3-{[3-(1H-benzimidazol-2-yl)piperidin-1-yl]sulfonyl}-N-(3-methoxypyridin-2-yl)benzamide] had an IC50 of 53 nM.
Under `CC(C)Oc1ccc(NC(=O)c2cccc(S(=O)(=O)N3C[C@@H]4C[C@H]3CO4)c2)cc1` [Example 10, N-(4-isopropoxyphenyl)-3-[(1S,4S)-2-oxa-5-azabicyclo[2.2.1]hept-5-ylsulfonyl]benzamide] stands 760 nM.
As to `O=C(Nc1ccccc1Cl)c1cccc(S(=O)(=O)N2CCCCC2)c1` [Example 89, N-(2-chlorophenyl)-3-(piperidin-1-ylsulfonyl)benzamide], 1500 nM corresponded to half-maximal inhibition (IC50).
In turn, `O=C(Nc1cccc(Cl)c1)c1cccc(S(=O)(=O)N2CCCCC2)c1` [Example 90, N-(3-chlorophenyl)-3-(piperidin-1-ylsulfonyl)benzamide] gave an IC50 of 9600 nM.
Molecule `COc1cccnc1NC(=O)c1cccc(S(=O)(=O)N2CCCC(C(=O)OCc3ccccc3)C2)c1` (stereo not drawn) [Example 62, Benzyl 1-[(3-{[(3-methoxypyridin-2-yl)amino]carbonyl}phenyl)sulfonyl]piperidine-3-carboxylate] displayed a half-inhibitory concentration (IC50) of 93 nM.
Molecule `C=Cc1cnc(NC(=O)c2cccc(S(=O)(=O)N3CCCCC3)c2)c(OC)c1` [Example 107, N-(3-methoxy-5-vinylpyridin-2-yl)-3-(piperidin-1-ylsulfonyl)benzamide] returned an IC50 of 520 nM.
`CC(C)c1ccc(NC(=O)c2cccc(S(=O)(=O)N3CC[C@@H](F)C3)c2)cc1` [Example 33]: half-maximal inhibition (IC50) required 2600 nM.
`CC(C)c1ccc(NC(=O)c2cccc(S(=O)(=O)N3CCC[C@@H](O)C3)c2)cc1` [Example 36, 3-{[(3R)-3-hydroxypiperidin-1-yl]sulfonyl}-N-(4-isopropylphenyl)benzamide] gave an IC50 of 81 nM.
Turning to `CC(C)Oc1ccc(NC(=O)c2cc(S(=O)(=O)N3CCCCC3)ccc2OCC(=O)O)cc1` [Example 154, [2-{[(4-Isopropoxyphenyl)amino]carbonyl}-4-(piperidin-1-ylsulfonyl)phenoxy]acetic acid], the IC50 came out at 300 nM.
As for `CC(C)Oc1cc(NC(=O)c2cccc(S(=O)(=O)N3CCCCC3)c2)[nH]n1` [Example 69, 3-Isopropoxy-5-{[3-(piperidin-1-ylsulfonyl)benzoyl}amino]-1H-pyrazole hydrochloride], 2.3 nM corresponded to half-maximal inhibition (IC50).
`CCOC(=O)C1CCCN(S(=O)(=O)c2cccc(C(=O)Nc3ncccc3OC)c2)C1` (stereo not drawn) [Example 55, Ethyl 1-[(3-{[(3-methoxypyridin-2-yl)amino]carbonyl}phenyl)sulfonyl]piperidine-3-carboxylate] returned an IC50 of 310 nM.
Turning to `CC(C)Oc1ccc(NC(=O)c2cc(S(=O)(=O)N3CCCCC3)ccc2O)cc1` [Example 151, 2-Hydroxy-N-(4-isopropoxyphenyl)-5-(piperidin-1-ylsulfonyl)benzamide], the IC50 worked out at 3600 nM.
For the molecule `COc1cc(Br)cnc1NC(=O)c1cccc(S(=O)(=O)N2CCCCC2)c1` [Example 106, N-(5-bromo-3-methoxypyridin-2-yl)-3-(piperidin-1-ylsulfonyl)benzamide], the IC50 turned out to be 1800 nM.
As for `CC(C)Oc1ccc(NC(=O)Cc2cccc(S(=O)(=O)N3CCCCC3)c2)cc1` [Example 160, N-(4-isopropoxyphenyl)-2-[3-(piperidin-1-ylsulfonyl)phenyl]acetamide], the midpoint of inhibition, the IC50, lay at 130 nM.
Molecule `CNC(=O)C1CCCN(S(=O)(=O)c2cccc(C(=O)Nc3ncccc3OC)c2)C1` (stereo not drawn) [Example 60, 1-[(3-{[(3-methoxypyridin-2-yl)amino]carbonyl}phenyl)sulfonyl]-N-methylpiperidine-3-carboxamide] showed an IC50 of 1100 nM.
The result for `CC(C)c1ccc(NC(=O)c2cccc(S(=O)(=O)N3CCCCCC3)c2)cc1` [Example 27, 3-(Azepan-1-ylsulfonyl)-N-(4-isopropylphenyl)benzamide] reads 190 nM; that for `CC(C)c1ccc(NC(=O)c2cccc(S(=O)(=O)c3ccccn3)c2)cc1` [Example 121, N-(4-isopropylphenyl)-3-(pyridin-2-ylsulfonyl)benzamide], 180 nM.
The result for `CC(C)c1ccc(NC(=O)c2cccc(S(=O)(=O)N3[C@H](C)CC[C@H]3C)c2)cc1` [Example 26, 3-{[(2R,5R)-2,5-dimethylpyrrolidin-1-yl]sulfonyl}-N-(4-isopropylphenyl)benzamide] reads 3500 nM; that for `CC(C)Oc1ccc(NC(=O)c2cccc(S(=O)(=O)N3CCCC(CN4CCOCC4)C3)c2)cc1` (stereo not drawn) [Example 14, N-(4-Isopropoxyphenyl)-3-{[3-(morpholin-4-ylmethyl)piperidin-1-yl]sulfonyl}benzamide trifluoroacetate], 1200 nM.
In turn, `CC(C)Oc1ccc(NC(=O)c2cccc(S(=O)(=O)N3CCCC(c4nc5ccccc5o4)C3)c2)cc1` (stereo not drawn) [Example 7, 3-{[3-(1,3-benzoxazol-2-yl)piperidin-1-yl]sulfonyl}-N-(4-isopropoxyphenyl)benzamide] came in with an IC50 of 51 nM.
The result for `O=C(N[C@H]1CCCc2ccccc21)c1cccc(S(=O)(=O)N2CCCCC2)c1` [Example 83, 3-(Piperidin-1-ylsulfonyl)-N-[(1S)-1,2,3,4-tetrahydronaphthalen-1-yl]benzamide] reads 5000 nM.
`CC(C)c1ccc(NC(=O)c2cncc(S(=O)(=O)c3ccccc3)c2)cc1` [Example 158, N-(4-isopropylphenyl)-5-(phenylsulfonyl)nicotinamide]: the IC50 was determined as 3400 nM.
`Cc1cccc(S(=O)(=O)c2cccc(C(=O)Nc3ccc(OC(C)C)cc3)c2)n1` [Example 132, N-(4-isopropoxyphenyl)-3-[(6-methylpyridin-2-yl)sulfonyl]benzamide] returned an IC50 of 680 nM.
Under `COc1ncccc1NC(=O)c1cccc(S(=O)(=O)N2CCCCC2)c1` [Example 97, N-(2-methoxypyridin-3-yl)-3-(piperidin-1-ylsulfonyl)benzamide] stands 2500 nM.

What is called IC50 is the midpoint of a concentration-inhibition curve. Read a high IC50 as weaker potency.
